Measured values from patent publication US6465007B1, “Transgene expression in polarized cells” (Genzyme Corporation, priority 1998, dated 2002).

What was measured:
polarized NHBE cells [1] = assay: Binding and internalization of cationic lipid:pDNA complexes (TOTO-1 label, trypan blue quenching)
Method: Cells were incubated with TOTO-1 or Rh-PE labeled complexes at 37° C. for the times noted in the figure legends. Following incubation, cells were washed 7 times with cold PBS and then fixed in 2% paraformadehyde for 20 min at 4° C. The membrane of the insert was removed and mounted using immuno-mount (Shandon, Pittsburgh, Pa.) containing 2 μg/ml DAPI (Molecular Probes). Bound and internalized complexes were observed under a fluorescence microscope (Olympus, AX-70). To observe only internalized complexes, cells were washed 2 times with cold PBS and then the fluorescence of surface bound complexes was quenched by a 10 min incubation with trypan blue (1 mg/ml; Diagnostic Systems, Inc., Gibbstown, N.J.) on ice. Cells were then washed an additional 5 times with cold PBS, fixed and mounted.
Polarized NHBE cells were cultured using a modified procedure based on the methods described by Yamaya et al., American Journal of Physiology, 265:L170-L177 (1993), Jiang et al., Science, 262:424-427 (1993) and Gray et al., American Journal of Respiratory Cell & Molecular Biology, 14:104-112 (1996). Briefly, first passage NHBE cells were plated at a density of 2.5×10^5 cells/cm^2 onto inserts (Millicell-PCF, 0.4 μm pore size, Millipore) coated with human placental collagen (Sigma). The culture medium was the same as that described above for growing NHBE cells as islands. Cultures were maintained under air-liquid interface conditions starting at day 3 following the initial seeding. Cells were considered ready for use when the trans-epithelial resistance was •1000 Ωcm^2.

polarized NHBE cells [2] = assay: In vitro transfection with GL-67:pCF1-SEAP, secreted alkaline phosphatase in apical supernatant; format: cell-based, human
Method: Prior to transfection, polarized NHBE cells on inserts were incubated in either Opti-MEM, Opti-MEM containing 0.1% EGTA, or in Ca^2+-free media (Gibco) in both sides of the insert for 30 min at 37° C. The cells were then washed 3 times with Opti-MEM, and incubated with unlabeled GL-67:pCF1-SEAP (40:53 μM) for 4 h at 37° C., after which they were washed 3 times with Opti-MEM. One ml of culture medium then was added to the outside of the insert (basal side) and 100 μl added to the inside of the insert (apical side). The supernatant from the apical side was collected on day 2 after transfection, heated at 65° C. for 1 h to denature endogenous alkaline phosphatases (Berger et al., Gene, 1988), and assayed in triplicate for secreted alkaline phosphatase (SEAP) activity using an alkaline phosphatase reagent (Sigma) and human placental alkaline phosphatase (Calbiochem, La Jolla, Calif.) as a standard.
To inhibit NHBE cell proliferation, aphidicolin (0.5 μg/ml; Sigma) was added to culture medium on the basal side of the polarized NHBE cells for 18 h at 37° C. The cells were then transfected as described above except that the concentrations of cationic lipid and pDNA were 80 and 107 μM, respectively. After transfection, aphidicolin was present in the culture medium until the cells were harvested. […] Retinoic acid enhanced the inhibitory effect of aphidicolin on cell proliferation (Chou, R. H. et al., Cell & Tissue Kinetics, 18:387-97, 1985).

polarized NHBE cells [3] = assay: Infection with Ad2βgal-4 after pretreatment, βgal expression; format: cell-based, human; settings: cells treated with the calcium chelator
Method: Polarized NHBE cells were treated with Ca^2+-free medium (GIBCO) for 0.5 h and then rinsed twice with Opti-MEM (GIBCO). […] The cells were then infected by adding 200 μl of Opti-MEM containing Ad2βgal-4 or Ad2EGFP (100 moi) to the apical surface of the cultures, while 1 ml of OptiMEM was added to the outside of the insert. After 1 h, the viral suspension was removed, the cells washed twice with Opti-MEM and then 1 ml of the culture medium was added to the outside of the insert. Two days after infection, cells were assayed for βgal expression.

mouse trachea [4] = assay: Intranasal instillation of Ad2βgal-4, X-gal staining of airways; format: in vivo; settings: for X-gal staining in the trachea: FIG. 4
Method: (§1) Female BALB/c mice 9-12 weeks of age were purchased from Taconic (Germantown, N.Y.). In some groups, mice were instilled intranasally with 25 μl of a solution containing EGTA (pH 7.5), followed by 25 μl of 5% sucrose in PBS containing Adβgal-4 (2×10^8 IU). In other groups, mice were co-instilled with 25 μl of a solution prepared by mixing equal volumes of a 2× (4×10^8 IU/25 μl) Ad2βgal-4 solution in 10% sucrose with 2×EGTA prior to instillation.
Cytochemical localization of Ogal expression in the trachea was observed using 5-bromo-4-chloro-3-indolyl-β-D-galactopyranoside (X-gal; Sigma). In brief, cannulated mouse lungs were fixed for 10 min by infusion of a fixing solution (2% paraformaldehyde and 0.2% glutaraldehyde in PBS). The lungs were then rinsed twice with 50 mM glycine in PBS, filled with X-gal solution, and stained overnight. Staining was stopped by transfering the samples into the fixing solution.
Trachea with staining levels were defined on a scale of 0 to 3, 0 indicating no cells staining for βgal, and a value of 3 indicating a large number of cells positive for the transgene. To evaluate the effect of EGTA concentration on AdV-mediated gene transfer in the trachea, mice were pre-treated with various concentrations of EGTA 0.5 h before AdV instillation. In some animals, AdV and EGTA were co-instilled. To exclude the possibility that any observed enhancement of expression was due to a hyperosmotic effect of the EGTA solution, a 20% mannitol solution (osmolarity similar to 0.4M EGTA) was included as a control in both the pre-treatment and co-instillation models.

mouse trachea [5] = assay: Intranasal instillation of Ad2βgal-4, quantitative chemiluminescent βgal assay of trachea; format: in vivo
Method: as §1
To quantify βgal expression, mice were sacrificed with an intraperitoneal injection of Somlethal (King Pharmaceuticals, Bristol, Tenn.) as described by Kaplan et al (1998), and samples of trachea from individual mice were homogenized in lysis buffer. βgal activity was measured with a commercial kit (Galactolight, Tropix, Bedford, Mass.). Protein concentration in the homogenate was measured using DC reagent (Bio-Rad, Hercules, Calif.). Results are expressed as relative light units (RLU) per milligram of total protein.

[6] = system: columnar epithelial cells in mouse trachea; assay: Light and electron microscopy of trachea; format: in vivo
Source text: Tracheas stained with X-gal were removed from the fixing solution and processed for light and electron microscopy using standard procedures. Briefly, the tissues were washed with PBS, dried in alcohols, embedded in glycol methacrylate (GMA) and stained with nuclear fast red. The Ogal-stained cells were identified by light microscopy. For electron microscopy, the fixed tissues were washed three times in Sabatini's solution (1×PBS containing 6.8% sucrose), and postfixed with 1% osmium tetroxide in 0.1 M cacodylate buffer (pH7.4) for an hour, followed by three washes with Sabatini's solution. The samples were then dehydrated with a graded series of alcohols (30, 50, 75, 90 and 100 % for 15 min each), followed by treatments with propylene oxide (15 min), a 1:1 Epon-propylene oxide mix (1 h), and three incubations in pure Epon (3 h, 3 h and overnight). Polymerization was at 64° C. overnight. After embedding, ultrathin sections were cut (MT2 Sorvall ultramicrotome) and stained with lead citrate and uranyl acetate and examined with a JEOL 100CX transmission electron microscope (TEM).

tight junctions = settings: compared with EDTA; cited from earlier work

## O=C(O)CN(CCOCCOCCN(CC(=O)O)CC(=O)O)CC(=O)O [EGTA, Ethylene glycol bis(B-aminoethyl ether) N,N,N′,N′-tetraacetic acid]
Polarized NHBE cells [1]; Table 1, grades Very Effective / Mildly Effective
  Effects of Tight Junction Disrupting Compounds on Cationic Amphiphile: DNA Complex Binding: Very Effective
Polarized NHBE cells [1]; fully polarized NHBE cells pretreated before incubation with complexes
  complex internalization: increased dramatically
Polarized NHBE cells [1]; pretreatment of fully polarized NHBE cells
  toxicity: minimal toxicity
Polarized NHBE cells [1]; vs EDTA, poly-lysine, sodium caprate, decanoylcarnitine, sodium glycocholate
  increasing the amount of internalized complex, compared with other reagents known to open tight junctions: most effective
Polarized NHBE cells [2]; 0.5 h pre-treatment, GL-67:pCF1-SEAP 40:53 μM 4 h, assayed after 48 h, FIG. 1
  increase in SEAP expression: ~55 fold
Polarized NHBE cells [2]; treatment of polarized normal human bronchial epithelial cells
  ability to transfect with cationic lipid:pDNA complexes: significant enhancement
Polarized NHBE cells [3]
  increase in expression from an AdV infection: ~50 fold
Mouse trachea [4]; 0.4M pre-treatment group
  X-gal staining in the trachea: most consistent and highest X-gal staining
Mouse trachea [4]; treated mice vs AdV alone, 2×10^8 IU
  X-gal staining in the trachea: marked increase
Mouse trachea [4]; virus instilled 0.5 h after treatment
  gene expression in trachea, primary bronchi and small airways (X-gal staining): significantly enhanced
Mouse trachea [5]; 0.1M and 0.4M, FIG. 5B
  time between treatment and AdV instillation giving maximal enhancement of β-gal expression: 0.5 h
Mouse trachea [5]; pre-treated with 0.05 and 0.1M, FIG. 5A
  tracheal gene expression relative to co-instilling AdV with 0.05M EGTA: > 6 fold
[6]; 0.4M
  airway epithelial cell damage by EM: some damaged airway epithelial cells were observed
[6]; treated prior to AdV instillation
  cells transduced by AdV in cartilaginous airways: localized to columnar epithelial cells
Tight junctions
  effectiveness at disrupting tight junctions: more effective than EDTA
